Legend:
[1] = tested on: Italian ryegrass; test: Test Example 4: herbicidal effect by soil treatment (Table 19, symbol K); type: in vivo, Italian ryegrass (Lolium multiflorum); settings: amount of applied herbicide 320 g/ha
How it was run: (§1)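 Step 1: sow seeds in sterilized diluvial soil, cover ~1.5 cm. Step 2: spray diluted emulsion onto soil surface at predetermined rate. Step 3: greenhouse, 25–30° C, three weeks. Step 4: grade effect on each plant by earlier criteria.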

[2] = tested on: southern crabgrass; test: Test Example 5: herbicidal effect by foliage application, plastic box (Table 20, symbol F); type: in vivo, southern crabgrass (Digitaria ciliaris); settings: foliage application, 320 g/ha, evaluated three weeks after application
How it was run: (§2)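 Foliar spray test: emulsion formulation diluted in water to a set application rate, sprayed onto 14-day-old plants raised in diluvial soil at 25° C to 30° C under glass. Both herbicidal effect and crop effect rated visually three weeks later.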

[3] = tested on: windgrass; test: Test Example 5: herbicidal effect by foliage application, plastic box (Table 20, symbol L); type: in vivo, windgrass (Apera spica-venti); settings: foliage application, 320 g/ha, evaluated three weeks after application
How it was run: as §2

[4] = tested on: Chinese sprangletop; test: Test Example 3: herbicidal effect by foliage application, Wagner pot (Table 18, symbol D); type: in vivo, chinese sprangletop (Leptochloa chinensis); settings: amount of applied herbicide 320 g/ha
How it was run: (§3)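 Plants were sown in alluvial soil held under 0.1–0.5 cm standing water and grown 14 days in a greenhouse at 25–30 °C. An emulsifiable formulation, water-diluted to the set dose, was then sprayed onto the foliage, and effects were scored three weeks later using previously defined criteria.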

[5] = tested on: barnyard grass; test: Test Example 5: herbicidal effect by foliage application, plastic box (Table 20, symbol H); type: in vivo, barnyard grass (Echinochloa crus-galli); settings: foliage application, 320 g/ha, evaluated three weeks after application
How it was run: as §2

[6] = tested on: lambsquarters; test: Test Example 4: herbicidal effect by soil treatment (Table 19, symbol O); type: in vivo, lambsquarters (Chenopodium album); settings: amount of applied herbicide 320 g/ha
How it was run: as §1

[7] = tested on: persian speedwell; test: Test Example 4: herbicidal effect by soil treatment (Table 19, symbol R); type: in vivo, Persian speedwell (Veronica persica); settings: amount of applied herbicide 320 g/ha
How it was run: as §1

[8] = tested on: blackgrass; test: Test Example 5: herbicidal effect by foliage application, plastic box (Table 20, symbol J); type: in vivo, blackgrass (Alopecurus myosuroides); settings: foliage application, 320 g/ha, evaluated three weeks after application
How it was run: as §2

[9] = tested on: wild oat; test: Test Example 5: herbicidal effect by foliage application, plastic box (Table 20, symbol I); type: in vivo, wild oat (Avena fatua); settings: foliage application, 320 g/ha, evaluated three weeks after application
How it was run: as §2

[10] = tested on: chickweed; test: Test Example 5: herbicidal effect by foliage application, plastic box (Table 20, symbol P); type: in vivo, common chickweed (Stellaria media); settings: foliage application, 320 g/ha, evaluated three weeks after application
How it was run: as §2

[11] = tested on: windgrass; test: Test Example 4: herbicidal effect by soil treatment (Table 19, symbol L); type: in vivo, windgrass (Apera spica-venti); settings: amount of applied herbicide 320 g/ha
How it was run: as §1

[12] = tested on: blackgrass; test: Test Example 4: herbicidal effect by soil treatment (Table 19, symbol J); type: in vivo, blackgrass (Alopecurus myosuroides); settings: amount of applied herbicide 320 g/ha
How it was run: as §1

[13] = tested on: Italian ryegrass; test: Test Example 5: herbicidal effect by foliage application, plastic box (Table 20, symbol K); type: in vivo, Italian ryegrass (Lolium multiflorum); settings: foliage application, 320 g/ha, evaluated three weeks after application
How it was run: as §2

[14] = tested on: redroot pigweed; test: Test Example 5: herbicidal effect by foliage application, plastic box (Table 20, symbol N); type: in vivo, redroot pigweed (Amaranthus retroflexus); settings: foliage application, 320 g/ha, evaluated three weeks after application
How it was run: as §2

[15] = tested on: barnyard grass; test: Test Example 4: herbicidal effect by soil treatment (Table 19, symbol H); type: in vivo, barnyard grass (Echinochloa crus-galli); settings: amount of applied herbicide 320 g/ha
How it was run: as §1

[16] = tested on: green foxtail; test: Test Example 5: herbicidal effect by foliage application, plastic box (Table 20, symbol G); type: in vivo, green foxtail (Setaria viridis); settings: foliage application, 320 g/ha, evaluated three weeks after application
How it was run: as §2

[17] = tested on: chickweed; test: Test Example 4: herbicidal effect by soil treatment (Table 19, symbol P); type: in vivo, common chickweed (Stellaria media); settings: amount of applied herbicide 320 g/ha
How it was run: as §1

[18] = tested on: false cleavers; test: Test Example 5: herbicidal effect by foliage application, plastic box (Table 20, symbol Q); type: in vivo, false cleavers (Galium spurium); settings: foliage application, 320 g/ha, evaluated three weeks after application
How it was run: as §2

[19] = tested on: barnyard grass; test: Test Example 3: herbicidal effect by foliage application, Wagner pot (Table 18, symbol H); type: in vivo, barnyard grass (Echinochloa crus-galli); settings: amount of applied herbicide 320 g/ha
How it was run: as §3

[20] = tested on: false cleavers; test: Test Example 4: herbicidal effect by soil treatment (Table 19, symbol Q); type: in vivo, false cleavers (Galium spurium); settings: amount of applied herbicide 320 g/ha
How it was run: as §1

[21] = tested on: persian speedwell; test: Test Example 5: herbicidal effect by foliage application, plastic box (Table 20, symbol R); type: in vivo, Persian speedwell (Veronica persica); settings: foliage application, 320 g/ha, evaluated three weeks after application
How it was run: as §2

[22] = tested on: velvetleaf; test: Test Example 4: herbicidal effect by soil treatment (Table 19, symbol M); type: in vivo, velvetleaf (Abutilon theophrasti); settings: amount of applied herbicide 320 g/ha
How it was run: as §1

[23] = tested on: rice flat sedge; test: Test Example 3: herbicidal effect by foliage application, Wagner pot (Table 18, symbol E); type: in vivo, rice flat sedge (Cyperus iria); settings: amount of applied herbicide 320 g/ha
How it was run: as §3

[24] = tested on: velvetleaf; test: Test Example 5: herbicidal effect by foliage application, plastic box (Table 20, symbol M); type: in vivo, velvetleaf (Abutilon theophrasti); settings: foliage application, 320 g/ha, evaluated three weeks after application
How it was run: as §2

[25] = tested on: lambsquarters; test: Test Example 5: herbicidal effect by foliage application, plastic box (Table 20, symbol O); type: in vivo, lambsquarters (Chenopodium album); settings: foliage application, 320 g/ha, evaluated three weeks after application
How it was run: as §2

[26] = tested on: wild oat; test: Test Example 4: herbicidal effect by soil treatment (Table 19, symbol I); type: in vivo, wild oat (Avena fatua); settings: amount of applied herbicide 320 g/ha
How it was run: as §1

[27] = tested on: green foxtail; test: Test Example 4: herbicidal effect by soil treatment (Table 19, symbol G); type: in vivo, green foxtail (Setaria viridis); settings: amount of applied herbicide 320 g/ha
How it was run: as §1

[28] = tested on: redroot pigweed; test: Test Example 4: herbicidal effect by soil treatment (Table 19, symbol N); type: in vivo, redroot pigweed (Amaranthus retroflexus); settings: amount of applied herbicide 320 g/ha
How it was run: as §1

[29] = tested on: southern crabgrass; test: Test Example 4: herbicidal effect by soil treatment (Table 19, symbol F); type: in vivo, southern crabgrass (Digitaria ciliaris); settings: amount of applied herbicide 320 g/ha
How it was run: as §1

Structure (SMILES)	K: Italian ryegrass, herbicidal effect rating [1]	herbicidal effect on F: southern crabgrass [2]	herbicidal effect on L: windgrass [3]	herbicidal effect on D: Chinese sprangletop [4]	herbicidal effect on H: barnyard grass [5]	O: lambsquarters, herbicidal effect rating [6]	R: persian speedwell, herbicidal effect rating [7]	herbicidal effect on J: blackgrass [8]	herbicidal effect on I: wild oat [9]	herbicidal effect on P: chickweed [10]	L: windgrass, herbicidal effect rating [11]	J: blackgrass, herbicidal effect rating [12]	herbicidal effect on K: Italian ryegrass [13]	herbicidal effect on N: redroot pigweed [14]	H: barnyard grass, herbicidal effect rating [15]	herbicidal effect on G: green foxtail [16]	P: chickweed, herbicidal effect rating [17]	herbicidal effect on Q: false cleavers [18]	herbicidal effect on H: barnyard grass [19]	Q: false cleavers, herbicidal effect rating [20]	further results
CCCCOc1ccc(-c2sc3ccc(Cl)cc3c2-c2c(OC(=O)CCC)c(C)nn(C)c2=O)cc1 [2-110]	0 (Herbicidal rate of 5% or less (almost no effect))	0 (Herbicidal rate of 5% or less (almost no effect))	0 (Herbicidal rate of 5% or less (almost no effect))	4 (Herbicidal rate of 70% or more and less than 90%)	0 (Herbicidal rate of 5% or less (almost no effect))	0 (Herbicidal rate of 5% or less (almost no effect))	2 (Herbicidal rate of 20% or more and less than 40%)	0 (Herbicidal rate of 5% or less (almost no effect))	0 (Herbicidal rate of 5% or less (almost no effect))	2 (Herbicidal rate of 20% or more and less than 40%)	0 (Herbicidal rate of 5% or less (almost no effect))	0 (Herbicidal rate of 5% or less (almost no effect))	0 (Herbicidal rate of 5% or less (almost no effect))	4 (Herbicidal rate of 70% or more and less than 90%)	0 (Herbicidal rate of 5% or less (almost no effect))	0 (Herbicidal rate of 5% or less (almost no effect))	0 (Herbicidal rate of 5% or less (almost no effect))	3 (Herbicidal rate of 40% or more and less than 70%)	4 (Herbicidal rate of 70% or more and less than 90%)	0 (Herbicidal rate of 5% or less (almost no effect))	herbicidal effect on R: persian speedwell [21]: 5 (Herbicidal rate of 90% or more (almost completely withered)); M: velvetleaf, herbicidal effect rating [22]: 0 (Herbicidal rate of 5% or less (almost no effect)); herbicidal effect on E: rice flat sedge [23]: 4 (Herbicidal rate of 70% or more and less than 90%); herbicidal effect on M: velvetleaf [24]: 3 (Herbicidal rate of 40% or more and less than 70%); herbicidal effect on O: lambsquarters [25]: 3 (Herbicidal rate of 40% or more and less than 70%); I: wild oat, herbicidal effect rating [26]: 0 (Herbicidal rate of 5% or less (almost no effect)); G: green foxtail, herbicidal effect rating [27]: 0 (Herbicidal rate of 5% or less (almost no effect)); N: redroot pigweed, herbicidal effect rating [28]: 0 (Herbicidal rate of 5% or less (almost no effect)); F: southern crabgrass, herbicidal effect rating [29]: 0 (Herbicidal rate of 5% or less (almost no effect))
CCOc1cc(F)ccc1-c1sc2ccc(Cl)cc2c1-c1c(O)c(C)nn(C)c1=O [2-115]	0 (Herbicidal rate of 5% or less (almost no effect))	4 (Herbicidal rate of 70% or more and less than 90%)	3 (Herbicidal rate of 40% or more and less than 70%)	1 (Herbicidal rate of 5% or more and less than 20%)	5 (Herbicidal rate of 90% or more (almost completely withered))	3 (Herbicidal rate of 40% or more and less than 70%)	4 (Herbicidal rate of 70% or more and less than 90%)	3 (Herbicidal rate of 40% or more and less than 70%)	1 (Herbicidal rate of 5% or more and less than 20%)	5 (Herbicidal rate of 90% or more (almost completely withered))	0 (Herbicidal rate of 5% or less (almost no effect))	4 (Herbicidal rate of 70% or more and less than 90%)	0 (Herbicidal rate of 5% or less (almost no effect))	5 (Herbicidal rate of 90% or more (almost completely withered))	3 (Herbicidal rate of 40% or more and less than 70%)	3 (Herbicidal rate of 40% or more and less than 70%)	3 (Herbicidal rate of 40% or more and less than 70%)	5 (Herbicidal rate of 90% or more (almost completely withered))	5 (Herbicidal rate of 90% or more (almost completely withered))	4 (Herbicidal rate of 70% or more and less than 90%)	herbicidal effect on R: persian speedwell [21]: 5 (Herbicidal rate of 90% or more (almost completely withered)); M: velvetleaf, herbicidal effect rating [22]: 1 (Herbicidal rate of 5% or more and less than 20%); herbicidal effect on E: rice flat sedge [23]: 3 (Herbicidal rate of 40% or more and less than 70%); herbicidal effect on M: velvetleaf [24]: 5 (Herbicidal rate of 90% or more (almost completely withered)); herbicidal effect on O: lambsquarters [25]: 3 (Herbicidal rate of 40% or more and less than 70%); I: wild oat, herbicidal effect rating [26]: 0 (Herbicidal rate of 5% or less (almost no effect)); G: green foxtail, herbicidal effect rating [27]: 2 (Herbicidal rate of 20% or more and less than 40%); N: redroot pigweed, herbicidal effect rating [28]: 5 (Herbicidal rate of 90% or more (almost completely withered)); F: southern crabgrass, herbicidal effect rating [29]: 3 (Herbicidal rate of 40% or more and less than 70%)

Source: patent publication US20230085307A1, “PYRIDAZINONE COMPOUND AND HERBICIDE” (NISSAN CHEMICAL CORPORATION, priority 2019, published 2023)
